This is an account of results in patent US8592467B2, “Benzothiazole cyclobutyl amine derivatives” (Abbvie Inc., priority 2005, dated 2013).

Structures are written as SMILES.

In general, melting point refers to the temperature of the solid-liquid transition. Take `O=c1cccnn1-c1ccc2nc([C@H]3C[C@H](N4CCCCC4)C3)sc2c1` [Example 48A, Trans-2-[2-(3-piperidin-1-ylcyclobutyl)-1,3-benzothiazol-6-yl]pyridazin-3(2H)-one]: the melting point was in the range of 139 to 140 °C.

`O=c1cccnn1-c1ccc2nc([C@H]3C[C@@H](N4CCCCC4)C3)sc2c1` [Example 48B, Cis-2-[2-(3-piperidin-1-ylcyclobutyl)-1,3-benzothiazol-6-yl]pyridazin-3(2H)-one] came in with a melting point of 127 to 128 °C.
